Drawing on patent publication US6472418B1, “Non-peptide NK1 receptors antagonists” (Warner-Lambert Company, priority 1998, dated 2002), this text covers IC50 for 36 molecules.

The target in one assay is T1, Human NK1 Receptor (Homo sapiens, UniProt P25103).
T1 construct: endogenous in cells; host or cells: Human lymphoma IM9 cells (whole cells)
T1 sequence (P25103 whole entry): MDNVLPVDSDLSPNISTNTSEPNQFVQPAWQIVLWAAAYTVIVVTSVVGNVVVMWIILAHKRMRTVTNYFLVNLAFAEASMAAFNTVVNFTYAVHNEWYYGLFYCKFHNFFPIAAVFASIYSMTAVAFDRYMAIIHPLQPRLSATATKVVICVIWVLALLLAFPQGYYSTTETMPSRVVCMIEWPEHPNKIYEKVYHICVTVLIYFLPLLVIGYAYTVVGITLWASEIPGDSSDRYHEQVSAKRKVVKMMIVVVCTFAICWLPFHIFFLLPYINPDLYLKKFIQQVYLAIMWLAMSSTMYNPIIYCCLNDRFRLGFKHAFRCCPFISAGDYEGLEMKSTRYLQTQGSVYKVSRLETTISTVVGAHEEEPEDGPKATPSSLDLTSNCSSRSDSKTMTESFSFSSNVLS
The experiment in a line: In Vitro Human NK1 Receptor Binding Assay ([125I]Bolton-Hunter substance P displacement, IM9 cells). The settings on record: Human lymphoma IM9 cells, [125I]Bolton-Hunter substance P; Table 3, array-synthesis products; read-out: IC50 (nM) hNK1. The method in brief:
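Radioligand displacement on whole IM9 human lymphoma cells (2.5×10^6 cells/mL) using [125I]Bolton-Hunter substance P (0.05-0.1 nM), 50 min at 21° C in Tris pH 7.4/MnCl2 buffer with protease inhibitors. Non-specific binding defined by […] [Sar9, Met(O2)11] substance P. Filtration, gamma counting, iterative curve fitting.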
Turning to `O=C(NC1Cc2ccccc2C1)C(Cc1c[nH]c2ccccc12)NCc1cc2ccccc2o1` (stereo not shown) [Example 239, 2-[(Benzofuran-2-ylmethyl)-amino]-N-indan-2-yl-3-(1H-indol-3-yl)-propionamide], the IC50 was determined as 243 nM.
On the same count and under the same terms, under `O=C(NCCOc1ccccc1)C(Cc1c[nH]c2ccccc12)NCc1cc2ccccc2o1` (stereo not shown) [Example 305, 2-[(Benzofuran-2-ylmethyl)-amino]-3-(1H-indol-3-yl)-N-(2-phenoxy-ethyl)-propionamide] stands 400 nM.
With `O=C(NCCc1cccs1)C(Cc1c[nH]c2ccccc12)NCc1cc2ccccc2o1` (stereo not shown) [Example 247, 2-[(Benzofuran-2-ylmethyl)-amino]-3-(1H-indol-3-yl)-N-(2-thiophen-2-yl-ethyl)-propionamide], the IC50 was determined as 56 nM.
With `COc1cccc(CCNC(=O)C(Cc2c[nH]c3ccccc23)NCc2cc3ccccc3o2)c1` (stereo not shown) [Example 291, 2-[(Benzofuran-2-ylmethyl)-amino]-3-(1H-indol-3-yl)-N-[2-(3-methoxy-phenyl)-ethyl]-propionamide], the IC50 was determined as 1340 nM.
Regarding `Cc1ccc(C(C)NC(=O)C(Cc2c[nH]c3ccccc23)NCc2cc3ccccc3o2)s1` (stereo not shown) [Example 208, 2-[(Benzofuran-2-ylmethyl)-amino]-3-(1H-indol-3-yl)-N-[1-(5-methyl-thiophen-2-yl)-ethyl]-propionamide], the half-maximal inhibitory concentration (IC50) was found to be 15 nM.
Turning to `COc1ccc(CNC(=O)C(Cc2c[nH]c3ccccc23)NCc2cc3ccccc3o2)cc1` (stereo not shown) [Example 199, 2-[(Benzofuran-2-ylmethyl)-amino]-3-(1H-indol-3-yl)-N-(4-methoxy-benzyl)-propionamide], the IC50 stood at 130 nM.

Still in this assay, the particulars now being: Table 4; [125I]Bolton-Hunter substance P displacement, human IM9 cells; read-out: IC50 (nM) hNK1.
For the molecule `CC(NC(=O)C(C)(Cc1c[nH]c2ccccc12)NCc1cc2ccccc2o1)c1ccccc1` (stereo not shown) [compound 343, 2-[(Benzofuran-2-ylmethyl)-amino]-3-(1H-indol-3-yl)-2-methyl-N-(1-phenyl-ethyl)-propionamide], the IC50 came out at 13 nM.
Take `CNS(=O)(=O)c1cc(CNC(C)(Cc2c[nH]c3ccccc23)C(=O)NC(C)c2ccccc2)ccc1Cl` (stereo not shown) [compound 326, 2-(4-Chloro-3-methylsulfamoyl-benzylamino)-3-(1H-indo1-3-yl)-2-methyl-N-(1-phenyl-ethyl)-propionamide]: the IC50 was 4830 nM.
As for `CSc1ccc(CNC(C)(Cc2c[nH]c3ccccc23)C(=O)NC(C)c2ccccc2)cc1` (stereo not shown) [compound 345, 3-(1H-Indol-3-yl)-2-methyl-2-(4-methylsulfanyl-benzylamino)-N-(1-phenyl-ethyl)-propionamide], the IC50 was determined as 609 nM.
On the same count and under the same terms, next, `CC(NC(=O)C(C)(Cc1c[nH]c2ccccc12)NCc1ccccc1OCc1ccccn1)c1ccccc1` (stereo not shown) [compound 323, 3-(1H-Indol-3-yl)-2-methyl-N-(1-phenyl-ethyl)-2-[2-(pyridin-2-ylmethoxy)-benzylamino]-propionamide]: 3180 nM.
Same read-out and setting: under “2-(2,3-Diphenyl-allylamino)-3-(1H-indol-3-yl)-2-methyl-N-(1-phenyl-ethyl)-propionamide [compound 338]” stands greater than 10000 nM.

The same assay, now with this note: Table 5; [125I]Bolton-Hunter substance P displacement, human IM9 cells; read-out: IC50 (nM) hNK1.
For `CC(NC(=O)C(Cc1c[nH]c2ccccc12)NCCCc1ccccc1)c1ccccc1` (stereo not shown) [compound 403], the IC50 stood at 3910 nM.
In the case of `CC(NC(=O)C(Cc1c[nH]c2ccccc12)NCc1ccc(N2CCOCC2)cc1Cl)c1ccccc1` (stereo not shown) [compound 368], the half-maximal inhibitory concentration (IC50) stood at 2240 nM.
Consider `CC(C)C=CCC1=CCC(CNC(Cc2c[nH]c3ccccc23)C(=O)NC(C)c2ccccc2)CC1` (stereo not shown) [compound 366], for which the IC50 was 4050 nM.
On the same count and under the same terms, next, `CC(NC(=O)C(Cc1c[nH]c2ccccc12)NCc1cccnc1)c1ccccc1` (stereo not shown) [compound 393]: 802 nM; `CC(NC(=O)C(Cc1c[nH]c2ccccc12)NCC1CC=C(CCCC(C)(C)O)CC1)c1ccccc1` (stereo not shown) [compound 365]: 5280 nM; `CC(NC(=O)C(Cc1c[nH]c2ccccc12)NCc1ccccc1Sc1ccc(Cl)cc1)c1ccccc1` (stereo not shown) [compound 387]: 201 nM.
As to `CCCc1nc(-n2cccc2)c(CNC(Cc2c[nH]c3ccccc23)C(=O)NC(C)c2ccccc2)[nH]1` (stereo not shown) [compound 375], the IC50 was determined as 165 nM.
“2-(2,3-Diphenyl-allylamino)-3-(1H-indol-3-yl)-2-methyl-N-(1-phenyl-ethyl)-propionamide [compound 338]”: the IC50 is greater than 10000 nM.

Still in this assay, the particulars now being: human NK1 receptor, IM9 cells, [125I]Bolton-Hunter substance P; read-out: IC50 (nM) hNK1.
On to `CC(NC(=O)C(C)(Cc1c[nH]c2ccccc12)NCc1cc2ccccc2o1)c1cccc2ccccc12` (stereo not shown) [compound 32, 2-[(Benzofuran-2-ylmethyl)-amino]-3-(1H-indol-3-yl)-2-methyl-N-(1-naphthalen-1-yl-ethyl)-propionamide], for which the IC50 is greater than 10000 nM.
`CC(Cc1c[nH]c2ccccc12)(NCc1cc2ccccc2o1)C(=O)NCc1ccc(Cl)c(Cl)c1` (stereo not shown) [compound 175, 2-[(Benzofuran-2-ylmethyl)-amino]-N-(3,4-dichloro-benzyl)-3-(1H-indol-3-yl)-2-methyl-propionamide]: the IC50 was 96 nM.
In the case of `CC(Cc1c[nH]c2ccccc12)(NCc1cc2ccccc2o1)C(=O)NCC1CCCCC1O` (stereo not shown) [compound 49, 2-[(Benzofuran-2-ylmethyl)-amino]-N (2-hydroxy-cyclohexylmethyl)-3-(1H-indol-3-yl)-2-methyl-propionamide], the IC50 came to 1550 nM.
In the case of `CC(Cc1c[nH]c2ccccc12)(NCc1cc2ccccc2o1)C(=O)NCc1ccc(F)c(Cl)c1` (stereo not shown) [compound 191, 2-[(Benzofuran-2-ylmethyl)-amino]-N-(3-chloro-4-fluoro-benzyl)-3-(1H-indol-3-yl)-2-methyl-propionamide], the IC50 came out at 55 nM.
In the case of `CC(Cc1c[nH]c2ccccc12)(NCc1cc2ccccc2o1)C(=O)NCCN1CCNC1=O` (stereo not shown) [compound 86, 2-[(Benzofuran-2-ylmethyl)-amino]-3-(1H-indol-3-yl)-2-methyl-N-[2-(2-oxo-imidazolidin-1-yl)-ethyl]-propionamide], the IC50 is greater than 10000 nM.
As to `CC(Cc1c[nH]c2ccccc12)(NCc1cc2ccccc2o1)C(=O)NCc1cccc(Br)c1` (stereo not shown) [compound 72, 2-[(Benzofuran-2-ylmethyl)-amino]-N-(3-bromo-benzyl)-3-(1H-indol-3-yl)-2-methyl-propionamide], the IC50 turned out to be 18 nM.
In the case of `CC1CCC(C)N1CCCCNC(=O)C(C)(Cc1c[nH]c2ccccc12)NCc1cc2ccccc2o1` (stereo not shown) [compound 94, 2-[(Benzofuran-2-ylmethyl)-amino]-N-[4-(2,5-dimethyl-pyrrolidin-1-yl)-butyl]-3-(1H-indol-3-yl)-2-methyl-propionamide], the half-maximal inhibitory concentration (IC50) is greater than 10000 nM.
The same measure, in the same setting: next, `CC(Cc1c[nH]c2ccccc12)(NCc1cc2ccccc2o1)C(=O)NCc1ccccc1O` (stereo not shown) [compound 186, 2-[(Benzofuran-2-ylmethyl)-amino]-N-(2-hydroxy-benzyl)-3-(1H-indol-3-yl)-2-methyl-propionamide]: 84 nM; “2-[(Benzofuran-2-ylmethyl)-amino]-N-(5-hydroxy-4-oxo-4H-pyran-2-ylmethyl)-3-(1H-indol-3-yl)-2-methyl-propionamide [compound 164]”: greater than 10000 nM.
Turning to `CC(Cc1c[nH]c2ccccc12)(NCc1cc2ccccc2o1)C(=O)NC12CN3CN(CN(C3)C1)C2` (stereo not shown) [compound 78, 2-[(Benzofuran-2-ylmethyl)-amino]-3-(1H-indol-3-yl)-2-methyl-N-(1,3,5-triaza-tricyclo[3.3.1.1>3,7]-dec-7-yl)-propionamide], the IC50 is greater than 10000 nM.
Consider `CC(Cc1c[nH]c2ccccc12)(NCc1cc2ccccc2o1)C(=O)NCc1ccccc1Cl` (stereo not shown) [compound 189, 2-((Benzofuran-2-ylmethyl)-amino]-N-(2-chloro-benzyl)-3-(1H-indol-3-yl)-2-methyl-propionamide], for which the IC50 turned out to be 1130 nM.
Still for that read-out and setting: next, `COc1ccc(CNC(=O)C(C)(Cc2c[nH]c3ccccc23)NCc2cc3ccccc3o2)cc1` (stereo not shown) [compound 68, 2-[(Benzofuran-2-ylmethyl)-amino]-3-(1H-indol-3-yl)-N-(4-methoxy-benzyl)-2-methyl-propionamide]: 312 nM; `CC(Cc1c[nH]c2ccccc12)(NCc1cc2ccccc2o1)C(=O)NCc1ccc(Cl)cc1F` (stereo not shown) [compound 177, 2-[(Benzofuran-2-ylmethyl)-amino]-N-(4-chloro-2-fluoro-benzyl)-3-(1H-indol-3-yl)-2-methyl-propionamide]: 444 nM.
`CC(Cc1c[nH]c2ccccc12)(NCc1cc2ccccc2o1)C(=O)NCc1cccnc1` (stereo not shown) [compound 24, 2-[(Benzofuran-2-ylmethyl)-amino]-3-(1H-indol-3-yl)-2-methyl-N-pyridin-3-ylmethyl-propionamide]: the IC50 worked out at 547 nM.
Still for that read-out and setting: under `CC(NC(=O)C(C)(Cc1c[nH]c2ccccc12)NCc1cc2ccccc2o1)c1ccsc1` (stereo not shown) [compound 41, 2-[(Benzofuran-2-ylmethyl)-amino]-3-(1H-indol-3-yl)-2-methyl-N-(1-thiophen-3-yl-ethyl)-propionamide] stands 19 nM; under `CC(Cc1c[nH]c2ccccc12)(NCc1cc2ccccc2o1)C(=O)NCc1ccc([N+](=O)[O-])cc1` (stereo not shown) [compound 119, 2-[(Benzofuran-2-ylmethyl)-amino]-3-(1H-indol-3-yl)-2-methyl-N-(4-nitro-benzyl)-propionamide], 89 nM; under `CCC(NC(=O)C(C)(Cc1c[nH]c2ccccc12)NCc1cc2ccccc2o1)c1cccs1` (stereo not shown) [compound 114, 2-[(Benzofuran-2-ylmethyl)-amino]-3-(1H-indol-3-yl)-2-methyl-N-(1-thiophen-2-yl-propyl)-propionamide], 128 nM.
As for `CC(Cc1c[nH]c2ccccc12)(NCc1cc2ccccc2o1)C(=O)NCc1ccc(OC(F)(F)F)cc1` (stereo not shown) [compound 66, 2-[(Benzofuran-2-ylmethyl)-amino]-3-(1H-indol-3-yl)-2-methyl-N-(4-trifluoromethoxy-benzyl)-propionamide], the IC50 worked out at 3440 nM.

By IC50 is commonly meant the concentration that inhibits the measured activity by half.
